36 compounds from patent US4634704A, “Anti-allergic five membered heterocyclic ring containing N-(bicyclic heterocycyl)-4-piperidinamines” (Janssen Pharmaceutica, N.V., priority 1984, dated 1987) can be followed below.

Counter-ions that a name gives are not always drawn.

One assay deals with compound 48/80-induced lethality. As to the kind of experiment: Protection of rats from compound 48/80-induced lethality. It counts as in vivo, rat (male, inbred Wistar strain). Conditions: Rattus norvegicus, 4 h, read-out: compound 48/80 lethality test in rats-ED50, dose protecting 50% of animals; subcutaneous or oral, 1 h before compound 48/80 0.5 mg/kg i.v.; survival after 4 h. The method, then:
Protection of rats from compound 48/80-induced lethality.
The protection from compound 48/80-induced lethal circulatory collapse appears to be a simple way of evaluating quantitatively the antihistaminic activity of test compounds. Male rats of an inbred Wistar strain, weighing 240-260 g were used in the experiment. After overnight starvation the rats were transferred to conditioned laboratories (temp.=21±1° C., relative humidity=65±5%).
The rats were treated subcutaneously or orally with a test compound or with the solvent (NaCl solution, 0.9%). […] Survival after 4 hours is therefore considered to be a safe criterion of a protective effect of drug administration.
The ED50 -values of the compounds of formula (I) are listed in the first column of table 1. Said ED50 -values are the values in mg/kg body weight at which the tested compounds protect 50% of the tested animals against compound 48/80-induced lethality.
For `Fc1ccc(Cn2c(NC3CCN(Cc4nc5ccccc5[nH]4)CC3)nc3ccccc32)cc1.O` [Compound 2, N-[1-(1H-benzimidazol-2-ylmethyl)-4-piperidinyl]-1-(4fluorophenylmethyl)-1H-benzimidazol-2-amine monohydrate], the ED50 is 0.63 mg/kg.

As to `Cc1nc[nH]c1CN1CCC(Nc2nc3ccccc3n2Cc2ccc(F)cc2)CC1` [Compound 7, 1-(4-fluorophenylmethyl)-N-[1-[(4-methyl-1H-imidazol-5-yl)methyl]-4-piperidinyl]-1H-benzimidazol-2-amine], the ED50 came out at 0.02 mg/kg.

For the compound `CCn1nnnc1OCCN1CCC(Nc2nc3ccccc3n2Cc2ccc(F)cc2)CC1` [Compound 10, N-[1-[2-[(1-ethyl-1H-tetrazol-5-yl)oxy]ethyl]-4-piperidinyl]-1-[(4-fluorophenyl)methyl]-1H-benzimidazol-2-amine (E)-2-butenedioate (2:5)], the ED50 amounted to 0.04 mg/kg.

Take `Cn1cnc([N+](=O)[O-])c1NCCN1CCC(Nc2nc3ccccc3n2Cc2ccc(F)cc2)CC1` [Compound 12]: the ED50 was found to be 0.31 mg/kg.

On to `Cc1nnc(NCCN2CCC(Nc3nc4ccccc4n3Cc3ccc(F)cc3)CC2)s1` [Compound 15, 1-[(4-fluorophenyl)methyl]-N-[1-[2-[(5-methyl-1,3,4-thiadiazol-2-yl)amino]ethyl]-4-piperidinyl]-1H-benzimidazol-2-amine], for which the ED50 was determined as 0.04 mg/kg.

As to `Fc1ccc(Cn2c(NC3CCN(CCNc4nccs4)CC3)nc3cccnc32)cc1` [Compound 17], the ED50 came out at 0.02 mg/kg.

With `Nc1nnc(NCCN2CCC(Nc3nc4ccccc4n3Cc3ccc(F)cc3)CC2)s1` [Compound 18], the ED50 was 0.02 mg/kg.

For the compound `Fc1ccc(Cn2c(NC3CCN(CCNc4nc5ccccc5s4)CC3)nc3ccccc32)cc1` [Compound 19], the ED50 stood at 0.31 mg/kg.

With `Fc1ccc(Cn2c(NC3CCN(CCCNc4nccs4)CC3)nc3ccccc32)cc1` [Compound 20], the ED50 was determined as 0.16 mg/kg.

With `Fc1ccc(Cn2c(NC3CCN(CCNc4nccs4)CC3)nc3ccncc32)cc1` [Compound 23], the ED50 was found to be 0.08 mg/kg.

As to `COc1ccc(Cn2c(NC3CCN(CCNc4nccs4)CC3)nc3ccccc32)cc1` [Compound 24], the ED50 came to 0.31 mg/kg.

Take `CN(c1nc2ccccc2n1Cc1ccc(F)cc1)C1CCN(CCNc2nccs2)CC1` [Compound 26]: the ED50 turned out to be 0.02 mg/kg.

With `c1ccc(Cn2c(NC3CCN(CCNc4nccs4)CC3)nc3ccccc32)nc1` [Compound 27], the ED50 stood at 0.04 mg/kg.

Turning to `O=[N+]([O-])c1cnc(NCCN2CCC(Nc3nc4ccccc4n3Cc3ccc(F)cc3)CC2)s1` [Compound 32], the ED50 stood at 0.63 mg/kg.

Regarding `CCc1nnc(NCCN2CCC(Nc3nc4ccccc4n3Cc3ccc(F)cc3)CC2)s1` [Compound 33], the ED50 is 0.16 mg/kg.

`Nc1ccc(Cn2c(NC3CCN(CCNc4nccs4)CC3)nc3ccccc32)cc1` [Compound 35]: the ED50 came out at 0.31 mg/kg.

In the case of `O=[N+]([O-])c1ccc(Cn2c(NC3CCN(CCNc4nccs4)CC3)nc3ccccc32)cc1` [Compound 43], the ED50 amounted to 0.31 mg/kg.

On to `CN(CCN1CCC(Nc2nc3ccccc3n2Cc2ccc(F)cc2)CC1)c1nccs1` [Compound 50, 1-[(4-fluorophenyl)methyl]-N-[1-[2-[methyl(2-thiazolyl)amino]ethyl]-4-piperidinyl]-1H-benzimidazol-2-amine], for which the ED50 came out at 0.08 mg/kg.

For `Fc1ccc(Cn2c(NC3CCN(CCCCNc4nccs4)CC3)nc3ccccc32)cc1` [Compound 53], the ED50 came to 0.31 mg/kg.

Consider `c1coc(Cn2c(NC3CCN(CCNc4nccs4)CC3)nc3cccnc32)c1` [Compound 56], for which the ED50 is 0.01 mg/kg.

Turning to `c1ccc(Cn2c(NC3CCN(CCNc4nccs4)CC3)nc3cccnc32)nc1` [Compound 57], the ED50 came to 0.005 mg/kg.

Consider `N=C(NCCN1CCC(Nc2nc3ccccc3n2Cc2ccc(F)cc2)CC1)Nc1nc2ccccc2[nH]1` [Compound 66, N-(1H-benzimidazol-2-yl)-N'-[2-[4-[[1-[(4-fluorophenyl)methyl]-1H-benzimidazol-2-yl]amino]-1-piperidinyl]ethyl]guanidine trihydrochloride.dihydrate], for which the ED50 is 0.31 mg/kg.

In the case of `Fc1ccc(Cn2c(NC3CCN(CCOc4nc5ccccc5s4)CC3)nc3ccccc32)cc1` [Compound 67, N-[1-[2-(2-benzothiazolyloxy)ethyl]-4-piperidinyl]-1-[(4-fluorophenyl)methyl]-1H-benzimidazol-2-amine], the ED50 worked out at 0.63 mg/kg.

In the case of `Fc1ccc(Cn2c(NC3CCN(CCSc4nc5ccccc5o4)CC3)nc3ccccc32)cc1` [Compound 73, N-[1-[2-[(2-benzoxazolyl)thio]ethyl]-4-piperidinyl]-1-[(4-fluorophenyl)methyl]-1H-benzimidazol-2-amine], the ED50 was determined as 0.63 mg/kg.

As to `CCn1nnnc1SCCN1CCC(Nc2nc3ccccc3n2Cc2ccc(F)cc2)CC1` [Compound 74, N-[1-[2-[(1-ethyl-1H-tetrazol-5-yl)thio]ethyl]-4-piperidinyl]-1-[(4-fluorophenyl)methyl]-1H-benzimidazol-2-amine], the ED50 is 0.08 mg/kg.

As for `O=C(NCCN1CCC(Nc2nc3ccccc3n2Cc2ccc(F)cc2)CC1)c1cc2ccccc2[nH]1` [Compound 76, N-[2-[4-[[1-[(4-fluorophenyl)methyl]-1H-benzimidazol-2-yl]amino]-1-piperidinyl]ethyl]-1H-indole-2-carboxamide], the ED50 was 0.16 mg/kg.

For `O=C(Cc1c[nH]c2ccccc12)NCCN1CCC(Nc2nc3ccccc3n2Cc2ccc(F)cc2)CC1` [Compound 77, N-[2-[4-[[1-[(4-fluorophenyl)methyl]-1H-benzimidazol-2-yl]amino]-1-piperidinyl]ethyl]-1H-indol-3-acetamide], the ED50 was 0.16 mg/kg.

As to `Cn1c(C(=O)NCCN2CCC(Nc3nc4ccccc4n3Cc3ccc(F)cc3)CC2)cc2ccccc21` [Compound 78, N-[2-[4-[[1-[(4-fluorophenyl)methyl]-1H-benzimidazol-2-yl]amino]-1piperidinyl]ethyl]-1-methyl-1H-indole-2-carboxamide], the ED50 is 0.16 mg/kg.

For `Fc1ccc(Cn2ccnc2NCCN2CCC(Nc3nc4ccccc4n3Cc3ccc(F)cc3)CC2)cc1` [Compound 82, 1-[(4-fluorophenyl)methyl]-N-[1-[2-[[1-[(4-fluorophenyl)methyl]-1H-imidazol-2-yl]amino]ethyl]-4-piperidinyl]-1H-benzimidazol-2-amine cyclohexanesulfamate(1:3).dihydrate], the ED50 was 0.16 mg/kg.

As to `Nc1nc(CCN2CCC(Nc3nc4ccccc4n3Cc3ccc(F)cc3)CC2)cs1` [Compound 91, N-[1-[2-(2-amino-4-thiazolyl)ethyl]-4-piperidinyl]-1-[(4-fluorophenyl)methyl]-1H-benzimidazol-2-amine], the ED50 came to 0.08 mg/kg.

For the compound `Fc1ccc(Cn2c(NC3CCN(CCc4csc(-c5ccccc5)n4)CC3)nc3ccccc32)cc1` [Compound 92, 1-[(4-fluorophenyl)methyl]-N-[1-[2-(2-phenyl-4-thiazolylethyl]-4-piperidinyl]-1H-benzimidazol-2-aminedihydrochloride monohydrate], the ED50 amounted to 0.63 mg/kg.

For the compound `CCOC(=O)N(CCN1CCC(Nc2nc3ccccc3n2Cc2ccc(F)cc2)CC1)c1nccs1` [Compound 101, ethyl[2-[4-[[1-[(4-fluorophenyl)methyl]-1H-benzimidazol-2-yl]amino]-1-piperidinyl]ethyl](2-thiazolyl)carbamate], the ED50 is 0.31 mg/kg.

Take `CNC(=S)N(CCN1CCC(Nc2nc3ccccc3n2Cc2ccc(F)cc2)CC1)c1nccs1` [Compound 104, N-[2-[4-[[1-[(4-fluorophenyl)methyl]-1H-benzimidazol-2-yl]amino]-1-piperidinyl]ethyl]-N'-methyl-N-(2-thiazolyl)thiourea]: the ED50 turned out to be 0.16 mg/kg.

As to `Fc1ccc(Cn2c(NC3CCN(CCNc4nccn4-c4ncccn4)CC3)nc3ccccc32)cc1` [Compound 105], the ED50 turned out to be 0.16 mg/kg.

For the compound `CC(c1ccc(Cl)cc1)n1ccnc1NCCN1CCC(Nc2nc3ccccc3n2Cc2ccc(F)cc2)CC1` (stereo not shown) [Compound 106, N-[1-[2-[[1-[1-(4-chlorophenyl)ethyl]-1H-imidazol-2-yl]amino]ethyl]-4-piperidinyl]-1-[(4-fluorophenyl)methyl]-1H-benzimidazol-2-amine cyclohexanesulfamate(1:3).dihydrate], the ED50 was 0.63 mg/kg.

Still in this assay, the particulars now being: dose protecting 50% of animals; subcutaneous or oral, 1 h before compound 48/80 0.5 mg/kg i.v.; survival after 4 h; 0.5 mg/kg, 240 min.
In the case of `Fc1ccc(Cn2c(NC3CCN(CCNc4nccs4)CC3)nc3ccccc32)cc1` [Compound 16], the “compound 48/80 lethality test in rats-ED50” value amounted to 0.08 mg/kg body weight.

The next assay deals with effects of serotonin in the gastric lesion test. As to the kind of experiment: Antagonistic activity on the effects of serotonin in the gastric lesion test (lesions induced by compound 48/80). Format: in vivo, rat (male, Wistar inbred strain). The conditions noted are these: Rattus norvegicus, read-out: gastric lesion test ED50. An excerpt:
The compounds of formula (I) and the pharmaceutically acceptable acid addition salts thereof are also potent serotonin-antagonists. The potency of the subject compounds as serotonin-antagonists is clearly evidenced by the results obtained in the following tests wherein the antagonistic activity of the subject compounds on the effect of serotonin is examined.
Antagonistic activity on the effects of serotonin in the gastric lesion test.
The shock, followed by dead, can be avoided if the rats are pretreated with a classical H 1 antagonist.
Male rats of a Wistar inbred strain, weighing 220-250 g, were starved overnight, water being available ad libitum. The test compounds were administered orally as a solution or as a suspension in aqueous medium. A control rat and a "blank" rat received the test compound. One hour later 5-[4-(diphenylmethyl)-1-piperazinylmethyl]-1-methyl-1H-benzimidazole-2-methanol was administered subcutaneously to all rats at the dose of 2.5 mg/kg.
Four hours after the intravenous injection of compound 48/80, the rats were decapitated and the stomachs were removed. Subsequently the stomachs were inspected for distension and contents (blood, fluid, food) and thoroughly rinsed. The macroscopic lesions were scored from 0 to +++, 0 corresponding to the complete absence of visible lesions and the highest score corresponding to reddish rough patches covering more than half the glandular area.
Regarding `Nc1nnc(NCCN2CCC(Nc3nc4ccccc4n3Cc3ccc(F)cc3)CC2)s1` [Compound 18], the ED50 worked out at 0.04 mg/kg.

The assay is the same for the next values; noted with them: Rattus norvegicus; read-out: gastric lesion test ED50.
As for `Cc1nc[nH]c1CN1CCC(Nc2nc3ccccc3n2Cc2ccc(F)cc2)CC1` [Compound 7, 1-(4-fluorophenylmethyl)-N-[1-[(4-methyl-1H-imidazol-5-yl)methyl]-4-piperidinyl]-1H-benzimidazol-2-amine], the ED50 was found to be 0.31 mg/kg.

Consider `Cc1nnc(NCCN2CCC(Nc3nc4ccccc4n3Cc3ccc(F)cc3)CC2)s1` [Compound 15, 1-[(4-fluorophenyl)methyl]-N-[1-[2-[(5-methyl-1,3,4-thiadiazol-2-yl)amino]ethyl]-4-piperidinyl]-1H-benzimidazol-2-amine], for which the ED50 is 0.31 mg/kg.

As for `Fc1ccc(Cn2c(NC3CCN(CCNc4nccs4)CC3)nc3cccnc32)cc1` [Compound 17], the ED50 was 0.16 mg/kg.
